Consider two compounds from US20260098039A1, “SOLID FORMS OF COMPOUND I OR SALTS THEREOF” (Jacobio Pharmaceuticals Co., Ltd., priority 2022, published 2026).

In one data set the target is T1, PARP7 enzyme (Homo sapiens, UniProt Q7Z3E1).
T1 sequence (Q7Z3E1 1-657): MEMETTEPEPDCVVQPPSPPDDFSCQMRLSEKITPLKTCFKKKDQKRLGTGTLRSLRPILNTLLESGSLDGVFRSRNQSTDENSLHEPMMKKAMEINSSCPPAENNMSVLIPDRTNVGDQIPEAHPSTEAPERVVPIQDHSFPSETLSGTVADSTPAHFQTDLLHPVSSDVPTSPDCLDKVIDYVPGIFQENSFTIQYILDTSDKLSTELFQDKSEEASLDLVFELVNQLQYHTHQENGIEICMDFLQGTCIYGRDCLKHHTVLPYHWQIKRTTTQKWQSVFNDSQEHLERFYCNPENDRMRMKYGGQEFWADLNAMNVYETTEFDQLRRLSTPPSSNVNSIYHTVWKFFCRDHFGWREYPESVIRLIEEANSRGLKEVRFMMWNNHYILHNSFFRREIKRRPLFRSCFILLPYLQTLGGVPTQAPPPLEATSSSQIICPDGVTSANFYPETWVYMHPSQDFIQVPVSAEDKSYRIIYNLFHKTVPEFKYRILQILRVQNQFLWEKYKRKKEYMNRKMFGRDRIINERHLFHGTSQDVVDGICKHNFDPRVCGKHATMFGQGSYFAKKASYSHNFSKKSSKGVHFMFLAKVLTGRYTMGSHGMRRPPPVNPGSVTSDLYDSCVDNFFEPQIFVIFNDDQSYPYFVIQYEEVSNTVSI
Description: PARP7 enzymatic HTRF assay. It is filed as binding. Conditions: 6 nM PARP7 enzyme solution, RBN011147 probe, 25° C. 3 hrs. How it is done: The PARP7 enzyme inhibitory activity of each compound was tested using HTRF (homogeneous time resolved fluorescence) assay, and the half inhibitory concentration IC50 thereof was obtained.
(1) Each compound to be tested was prepared using gradient dilution method with DMSO and water to obtain a solution with the concentration of 50 nM, 10 nM, 2 nM, 0.4 nM, and 0.08 nM. The concentration of DMSO in the solution of each compound to be tested was 2%. […]
(5) The fluorescence signal was read on SPARK plate reader (Tecan), the wavelength of the excitation spectrum of the SPARK plate reader was 320 nm, and the wavelength of the emission spectrum of the SPARK plate reader was 620 nm and 665 nm. The ratio of […] was calculated for the solution in each well. The ratio was calculated according to the following formula: Ratio=absorbance at 665 nm/absorbance at 620 nm×10^4.
(6) The activation of the compounds to be tested was calculated according to the following formula: Activation (%)=100× (ratiocompound−rationnegative)/(ratiopositive−rationegative). […]
On the technique in general: In TR-FRET formats the signal depends on donor and acceptor labels being close together.

A short description of data set [1]: Solid state stability of crystalline form 1. It is filed as physicochemical. Particulars: long-term, accelerated, high temperature and high humidity conditions, exposed, dark, 10 days. The procedure:
The stability of crystalline Form 1 of Compound I was tested according to the following table 6.
The solid stability of crystalline form 1 of Compound I was exposure for 10 days in high humidity (25° C.±2° C., 90% RH±5% RH), high temperature (50° C.±5° C., <30% RH), long-term (25° C.±5° C., 60% RH±5%) and accelerated (40° C.±2° C., 75% RH±5%) conditions.

Data set [2] in a line: Equilibrium solubility of crystalline form 1. It is filed as physicochemical. The procedure: The equilibrium solubility of crystalline form 1 of Compound I was tested according to the following table 7.

Values after ≈ are worked out from the molar mass of the structure shown. “Also recorded” adds a separate entry of the source.

At PARP7 enzyme, `Cc1c2n(c3ncc(C(F)(F)F)cc13)CCN(C(=O)CCOC[C@H](C)Oc1cn[nH]c(=O)c1C(F)(F)F)C2` [Compound I, (S)-5-((1-(3-(5-methyl-3-(trifluoromethyl)-8,9-dihydropyrido[3′,2′:4,5]pyrrolo[1,2-a]pyrazin-7(6H)-yl)-3-oxopropoxy)propan-2-yl)oxy)-4-(trifluoromethyl)pyridazin-3(2H)-one] displayed an IC50 of 0.00158 µM.

Take `Cc1c2n(c3ncc(C(F)(F)F)cc13)CCN(C(=O)CCOC[C@H](C)Oc1cn[nH]c(=O)c1C(F)(F)F)C2` [crystalline form 1 of Compound I, (S)-5-((1-(3-(5-methyl-3-(trifluoromethyl)-8,9-dihydropyrido[3′,2′:4,5]pyrrolo[1,2-a]pyrazin-7(6H)-yl)-3-oxopropoxy)propan-2-yl)oxy)-4-(trifluoromethyl)pyridazin-3(2H)-one]: the “Polymorph (via XRPD) in solid state stability” value in data set [1] is “remain unchanged; also recorded: The polymorph remained unchanged under above 4 conditions for 10”. Further, in data set [2] (37 °C, thermodynamic from solid, FeSSIF, via HPLC), the thermodynamic solubility is about 100 µg/mL (≈ 183 µM). In addition, the “Polymorph (via XRPD) after equilibrium solubility test” value in data set [2] (after 24 h in water (25° C.), SGF (37° C.), FaSSIF (37° C.), FeSSIF (37° C.)) is “remains unchanged”. In addition, the “time to reach basic saturation” value in data set [2] (water (25° C.), SGF (37° C.), FaSSIF (37° C.), FeSSIF (37° C.)) is on record as 4 h.

In general, IC50 refers to the midpoint of a concentration-inhibition curve. A lower IC50 goes with inhibition by little substance. Broadly, the thermodynamic solubility is solubility found after equilibrating the solid with the medium.
